Source: US20110207807A1, “NEW USE FOR HOMOISOFLAVONE OR A SALT THEREOF” (Catholic University Industry Academy Cooperation Foundation, priority 2008, published 2011)

Assays:
[1] = test system: leukotriene C4; experiment: Release of leukotriene C4 induced by PMA and A23187 in HMC-1 (enzyme immunoassay); type: cell-based; details: Homo sapiens, HMC1; HMC-1, homoisoflavanone 2 μg/mL or mizolastine 10 μg/mL, 50 nM PMA + 1 μM A23187, 21 hours (FIG. 6b)
Excerpt: (§1) Phorbol 12-myristate 13-acetate and A23187 lead to degranulation of human mast cells (HMC), causing the mast cells to release not only their histamine or serotonin but also newly produced inflammatory factors such as pro-inflammatory cytokines, prostaglandins and leukotrienes. It was investigated whether homoisoflavanone has anti-inflammatory effect in mast cells as in Examples 4 and 5. In order to investigate the effect of homoisoflavanone on the release of leukotriene induced by phorbol 12-myristate 13-acetate and A23187 in HMC-1, 1×10^6 HMC-1 cells were inoculated on a 100-mm culture dish and cultured in Iscove's modified Dulbecco's medium (IMDM, GIBCO) containing 10% FBS for 48 hours. Then, after treating with homoisoflavanone at 2 μg/mL or with mizolastine at 10 μg/mL for comparison for 1 hour, the cells were treated with 50 nM phorbol 12-myristate 13-acetate and 1 μM A23187 to induce release of leukotriene, and then further cultured for 21 hours. Then, the supernatant was collected and the quantity of released leukotriene B4 and C4 was measured using a leukotriene B4, C4 enzyme immunoassay kit (Sapphire Bioscience, Australia).

[2] = test system: leukotriene B4; experiment: Release of leukotriene B4 induced by PMA and A23187 in HMC-1 (enzyme immunoassay); type: cell-based, human
Excerpt: as §1

## CN(c1nccc(=O)[nH]1)C1CCN(c2nc3ccccc3n2Cc2ccc(F)cc2)CC1 [mizolastine, reference compound]
[1]
  inhibition at 10 µg/mL: ≥ 90%
[2]; HMC-1, homoisoflavanone 2 μg/mL or mizolastine 10 μg/mL alone, without PMA/A23187 (FIG. 6a)
  leukotriene B4 release when treated alone, versus non-treated group: no appreciable difference
[2]; Homo sapiens, HMC1, HMC-1, homoisoflavanone 2 μg/mL or mizolastine 10 μg/mL, 50 nM PMA + 1 μM A23187, 21 hours (FIG. 6a)
  inhibition at 10 µg/mL: 20%
